# Laboratory results from patent publication EP1614683B1, “Indazole compounds and pharmaceutical compositions for inhibiting protein kinases, and methods for their use” (priority 1999, dated 2001).
# Where two headings read alike, the source gives them in different places.
# What was measured:
# [1] = test system: human umbilical vein endothelial cells (HUVEC); assay: HUVEC proliferation assay (VEGF-stimulated, MTT); assay type: cell-based; settings: Table 1
# Method: This assay determines the ability of a test compound to inhibit the growth factor-stimulated proliferation of human umbilical vein endothelial cells ("HUVEC"). HUVEC cells (passage 3-4, Clonetics, Corp.) were thawed into EGM2 culture medium (Clonetics Corp) in T75 flasks. Fresh EGM2 medium was added to the flasks 24 hours later. Four or five days later, cells were exposed to another culture medium (F12K medium supplemented with 10% fetal bovine serum (FBS), 60 µg/mL endothelial cell growth supplement (ECGS), and 0.1 mg/mL heparin). Exponentially-growing HUVEC cells were used in experiments thereafter. Ten to twelve thousand HUVEC cells were plated in 96-well dishes in 100 µl of rich, culture medium (described above). The cells were allowed to attach for 24 hours in this medium. The medium was then removed by aspiration and 105 µl of starvation media (F12K+1% FBS) was added to each well. After 24 hours, 15 µl of test agent dissolved in 1% DMSO in starvation medium or this vehicle alone was added into each treatment well; the final DMSO concentration was 0.1%. One hour later, 30 µl of VEGF (30 ng/mL) in starvation media was added to all wells except those containing untreated controls; the final VEGF concentration was 6 ng/mL. Cellular proliferation was quantified 72 hours later by MTT dye reduction, at which time cells were exposed for 4 hours MTT (Promega Corp.).
# in vitro = in vitro ADME, human
# Method: Compound metabolism in human liver microsomes was measured by LC-MS analytical assay procedures as follows. First, human liver microsomes (HLM) were thawed and diluted to 5 mg/mL with cold 100 mM potassium phosphate (KPO4) buffer. Appropriate amounts of KPO4 buffer, NADPH-regenerating solution (containing B-NADP, glucose-6-phosphate, glucose-6-phosphate dehydrogenase, and MgCl2), and HLM were preincubated in 13 x 100 mm glass tubes at 37 C for 10 min. (3 tubes per test compound--triplicate). Test compound (5 µM final) was added to each tube to initiate reaction and was mixed by gentle vortexing, followed by incubation at 37 °C. At t=0, 2 h, a 250-µL sample was removed from each incubation tube to separate 12 x 75 mm glass tubes containing 1 mL ice-cold acetonitrile with 0.05 µM reserpine. […] Supernatant was transferred to new 12 x 75 mm glass tubes and evaporated by Speed-Vac centrifugal vacuum evaporator. Samples were reconstituted in 200 µL 0.1 % formic acid/acetonitrile (90/10) and vortexed vigorously to dissolve. The samples were then transferred to separate polypropylene microcentrifuge tubes and centrifuged at 14000 x g for 10 min. (Fisher Micro 14, S/N M0017580). For each replicate (#1-3) at each timepoint (0 and 2 h), an aliquot sample of each test compound was combined into a single HPLC vial insert (6 total samples) for LC-MS analysis, which is described below.
# LCK tyrosine kinase = LCK tyrosine kinase (Homo sapiens, UniProt P06239, C224D/P223M); assay: LCK spectrophotometric assay; assay type: biochemical; settings: Table 1; compound concentration 1 µM; read-out: Lck-P* (% inhibition)
# Sequence of LCK tyrosine kinase (P06239 223-509 P223M/C224D): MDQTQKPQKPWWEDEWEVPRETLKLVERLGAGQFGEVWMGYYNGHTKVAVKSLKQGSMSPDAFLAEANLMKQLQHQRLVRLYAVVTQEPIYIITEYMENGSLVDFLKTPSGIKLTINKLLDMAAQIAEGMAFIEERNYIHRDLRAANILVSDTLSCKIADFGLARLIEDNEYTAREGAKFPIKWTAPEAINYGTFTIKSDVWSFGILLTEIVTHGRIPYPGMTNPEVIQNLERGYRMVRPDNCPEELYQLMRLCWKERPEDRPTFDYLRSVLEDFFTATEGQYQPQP
# Method: The spectrophotometric assay was carried out as described above for VEGF-R2, except for the following changes in concentration: LCK = 60 nM, MgCl2 = 0 mM, poly(E4Y1) = 20 mM.
# human FGF-R1 = human FGF-R1 (Homo sapiens, UniProt P11362, C488A/C584S/L457V); assay: FGF-R spectrophotometric assay; assay type: biochemical; settings: Table 1; compound concentration 1 µM; read-out: FGF-P* (% inhibition)
# Sequence of human FGF-R1 (P11362 456-766 L457V/C488A/C584S): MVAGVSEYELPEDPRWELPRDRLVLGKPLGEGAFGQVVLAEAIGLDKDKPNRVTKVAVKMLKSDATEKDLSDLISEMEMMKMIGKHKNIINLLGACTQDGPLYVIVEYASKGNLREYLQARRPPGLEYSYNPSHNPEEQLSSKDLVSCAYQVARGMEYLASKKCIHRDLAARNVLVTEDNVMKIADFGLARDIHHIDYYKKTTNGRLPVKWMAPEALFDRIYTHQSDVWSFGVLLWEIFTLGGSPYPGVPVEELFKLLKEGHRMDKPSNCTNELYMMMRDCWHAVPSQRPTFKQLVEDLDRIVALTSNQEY
# Method: The spectrophotometric assay was carried out as described above for VEGF-R2, except for the following changes in concentration: FGF-R = 50 nM, ATP = 2 mM, and poly(E4Y1) =15 mM.
# [2] = biological target: unphosphorylated VEGF-R2Δ50 (Homo sapiens, UniProt P35968, DEL940-989/E990V); assay: biochemical; settings: for inhibition at 0.05 µM: read-out: FLVK ** (% inhibition); for inhibition at 1 µM: read-out: FLVK* (% inhibition)
# Sequence of unphosphorylated VEGF-R2Δ50 (P35968 with tags, fused parts or gaps DEL940-989/E990V limits assumed): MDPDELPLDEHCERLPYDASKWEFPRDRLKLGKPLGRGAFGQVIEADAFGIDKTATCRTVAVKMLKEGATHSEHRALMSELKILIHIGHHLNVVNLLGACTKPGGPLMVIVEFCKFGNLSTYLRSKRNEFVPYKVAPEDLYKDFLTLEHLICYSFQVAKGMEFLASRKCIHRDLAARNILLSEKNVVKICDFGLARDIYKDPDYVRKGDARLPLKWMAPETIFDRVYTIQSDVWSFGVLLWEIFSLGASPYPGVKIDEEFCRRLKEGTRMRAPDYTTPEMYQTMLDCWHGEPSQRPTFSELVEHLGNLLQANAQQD
# [3] = Homo sapiens, HUVEC, + albumin, read-out: HUVEC + albumin IC50
# [4] = Homo sapiens, HUVEC, read-out: HUVEC IC50
# [5] = human liver microsomes, 5 µM test compound, 37 °C, 2 h
SMILES,"IC50 [1, 3] [nM]",inhibition at 1 µM (LCK tyrosine kinase) [%],inhibition at 1 µM (human FGF-R1) [%],inhibition at 0.05 µM [2] [%],also measured
"CN(c1cccc(NC(=O)c2ccccc2)c1)c1ccc2c(/C=C/c3ccccc3)n[nH]c2c1 [12(b), N-{3-[Methyl-(3-styryl-1H-indazol-6-yl)-amino]-phenyl}-benzamide]",44,32,,,"IC50 [1, 4]: 4.8 nM; remaining at 2 h, 5 µM (in vitro; human, microsomes): 29%"
"O=C(c1cccc(NC(=O)c2cccc(Cl)n2)c1)c1ccc2c(/C=C/c3ccccc3)n[nH]c2c1 [19(m), 6-[3-(6-chloropyridin-2-ylcarboxamido)benzoyl]-3-E-styryl-1H-indazole]",94,35,23,,"% remain (HLM, 2 h) (in vitro; [5]): 61%"
"O=C(Nc1cccc(C(=O)c2ccc3c(/C=C/c4ccccc4)n[nH]c3c2)c1)c1ccnc(Cl)c1 [19(o), 6-[3-(2-chloropyridin-4-ylcarboxamido)benzoyl]-3-E-styryl-1H-indazole]",,,,89,
"CNC(=O)c1ccccc1Nc1ccc2c(/C=C/c3ccccn3)n[nH]c2c1 [Example 39(a), 6-[2-(Methylcarbamoyl)phenylanzino]-3-E-[2-(pyridin-2-yl)ethenyl]-1H-indazole]",,,,,"% remain (HLM, 2 h) (in vitro; human, microsomes, 2 h, 5 µM): 70%"
"O=CNc1ccccc1/C=C/c1n[nH]c2cc(C(=O)c3cccc(NC(=O)c4ccccc4)c3)ccc12 [Example 43, 6-(3-Benzamidobenzoyl)-3-E-[2-(2-formamidophenyl)ethenyl]-1H-indazole]",,,,,"% remain (HLM, 2 h) (in vitro; human, microsomes, 2 h, 5 µM): 2%"
"O=C(c1cccc(NC(=O)c2cccc3[nH]ccc23)c1)c1ccc2c(/C=N/n3cccc3)n[nH]c2c1 [Example 45(a), 6-[3-(Indol-4-ylcarboxamido)benzoyl]-3-E-[N-(pyrrol-1-yl)iminomethyl]-1H-indazole]",,,,,"% remain (HLM, 2 h) (in vitro; human, microsomes, 2 h, 5 µM): 97%"
"Cc1cc(C(=O)Nc2cc(Nc3ccc4c(/C=C/c5ccccn5)n[nH]c4c3)c(F)cc2C)n(C)n1 [Example 48(b), 6-[N-(5-((1,3-Dimethyl-1H-pyrazol-5-yl)carboxamido)-2-fluoro-4-methylphenyl)amino]-3-E-[2-(pyridin-2-yl)ethenyl]-1H-indazole]",,6,77,97,
C#CCNC(=O)c1ccccc1C(=O)c1ccc2c(/C=C/c3ccccn3)n[nH]c2c1 [Example 56],,,,5,
"C(=C\c1n[nH]c2cc(-c3cccnc3)ccc12)/c1ccccc1 [Reference Example 27(e), 6-pyridin-3-yl-3-E-styryl-1H-indazole]",,,,,inhibition at 1 µM [2]: 34%
C(=C\c1n[nH]c2cc(-c3ccncc3)ccc12)/c1ccccc1 [Reference Example 27(f)],,,,,inhibition at 1 µM [2]: 49%
"Oc1ccc(-c2ccc3c(/C=C/c4ccccc4)n[nH]c3c2)cn1 [Reference Example 28(c), 6-(2-hydroxypyridin-5-yl)-3-E-styryl-1H-indazole]",,,,,inhibition at 1 µM [2]: 34%
COc1cccc(/C=C/c2n[nH]c3cc(-c4ccncc4)ccc23)c1 [Reference Example 29(e)],,,,,inhibition at 1 µM [2]: 33%
"C(=C\c1n[nH]c2cc(-c3ccncc3)ccc12)/c1nc2ccccc2[nH]1 [Reference Example 29(q), 6-pyrid-4-yl-3-E-[2-(benzimidazol-2-yl)ethenyl]-1H-indazole]",,,,,inhibition at 1 µM [2]: 11%
"NC(=O)c1ccccc1Sc1ccc2c(/C=C/c3ccccn3)n[nH]c2c1 [Reference Example 35(d), 6-(2-Carbamoylphenylsulfanyl)-3-E-[2-(pyridin-2-yl)ethenyl]-1H-indazole]",,,,76,
O=C(NCc1cccc(F)c1)c1ccccc1Sc1ccc2c(/C=C/c3ccccn3)n[nH]c2c1 [Reference Example 35(ff)],5.8,25,75,,"% remain (HLM, 2 h) (in vitro; [5]): 31%"
"CNCCNC(=O)c1ccccc1Sc1ccc2c(/C=C/c3ccccn3)n[nH]c2c1 [Reference Example 35(gg), 6-[2-(2-(methylamino)ethylcarbamoyl)phenylsulfanyl]-3-E-[2-(pyridin-2-yl)ethenyl]-1H-indazole]",,,,23,
"CN(O)C(=O)c1ccccc1Sc1ccc2c(/C=C/c3ccccn3)n[nH]c2c1 [Reference Example 35(o), 6-[2-(N-Hydroxy-N-methylcarbamoyl)phenylsufanyl]-3-E-[2-(pyridin-2-yl)ethenyl]-1H-indazole]",,17,44,39,
"O=C(NCc1ccncc1)c1ccccc1Sc1ccc2c(/C=C/c3ccccn3)n[nH]c2c1 [Reference Example 35(p), 6-[2-((Pyrid-4-yl)methylcarbamoyl)phenylsulfanyl]-3-E-[2-(pyridin-2-yl)ethenyl]-1H-indazole]",,5,11,62,
"CONC(=O)c1ccccc1Sc1ccc2c(/C=C/c3ccccn3)n[nH]c2c1 [Reference Example 35(r), 6-[2-(methoxycarbamoyl)phenylsulfanyl]-3-E-[2-(pyridin-2-yl)ethenyl]-1H-indazole]",2.3,16,,,"IC50 [1, 4]: 0.36 nM; % remain (HLM, 2 h) (in vitro; [5]): 51%"
"N#CCNC(=O)c1ccccc1Sc1ccc2c(/C=C/c3ccccn3)n[nH]c2c1 [Reference Example 35(w), 6-[2-(Cyanomethylcarbamoyl)phenylsulfanyl]-3-E-[2-(pyridin-2-yl)ethenyl]-1H-indazole]",35,,,59,
"O=C(Nc1cccc(C(=O)c2ccc3c(/C=C/c4ccccn4)n[nH]c3c2)c1)c1ccncc1 [Reference Example 41(b), 6-[3-(pyridin-4-ylcarboxamido)benzoyl]-3-E-[2-(pyridin-2-yl)ethenyl]-1H-indazole]",9.8,24,31,,"IC50 [1, 4]: 2 nM; remaining at 2 h, 5 µM (in vitro; human liver microsomes, 5 µM test compound, 37 °C, 2 h, read-out: % remain (HLM, 2 h)): 80%"
"CC(=O)c1ccc(C(=O)Nc2cccc(C(=O)c3ccc4c(/C=C/c5ccccn5)n[nH]c4c3)c2)s1 [Reference Example 41(e), 6-[3-((5-acetylthien-2-yl)carboxamido)benzoyl]-3-E-[2-(pyridin-2-yl)ethenyl]-1H-indazole]",5.6,21,31,,"IC50 [1, 4]: 0.15 nM; IC50 ([1]; + albumin, read-out: HUVEC + albumin IC50): 6.1 nM; % remain (HLM, 2 h) (in vitro; [5]): 22%"
"CC(=O)Nc1cc(C(=O)c2ccc3c(/C=C/c4ccccn4)n[nH]c3c2)ccc1C [Reference Example 41(gg), 6-(3-acetamido-4-methylbenzoyl)-3-E-[2-(pyridin-2-yl)ethenyl]-1H-indazole]",9.5,27,,84,
"COc1cc(C(=O)Nc2cccc(C(=O)c3ccc4c(/C=C/c5ccccn5)n[nH]c4c3)c2)cc(Cl)n1 [Reference Example 41(u), 6-[3-((2-chloro-6-methoxypyridin-4-yl)carboxamido)benzoyl]-3-E-[2-(pyridin-2-yl)ethenyl]-1H-indazole]",7.9,54,74,,
"Cc1cc(C(=O)Nc2cccc(C(=O)c3ccc4c(/C=C/c5ccccn5)n[nH]c4c3)c2)n(C(C)C)n1 [Reference Example 41(x), 6-[3-((1-Isopropyl-3-methyl-1H-pyrazol-5-yl)carboxamido)benzoyl]-3-E-[2-(pyridin-2-yl)ethenyl]-1H-indazole]",4.6,66,,98,
